Laboratory results published in patent publication US20170355705A1 (GlaxoSmithKline Intellectual Property (No.2) Limited, priority 2014, published 2017).

Molecular target: T1, SIRT1 (Homo sapiens, UniProt Q96EB6)
T1 sequence (Q96EB6 1-747): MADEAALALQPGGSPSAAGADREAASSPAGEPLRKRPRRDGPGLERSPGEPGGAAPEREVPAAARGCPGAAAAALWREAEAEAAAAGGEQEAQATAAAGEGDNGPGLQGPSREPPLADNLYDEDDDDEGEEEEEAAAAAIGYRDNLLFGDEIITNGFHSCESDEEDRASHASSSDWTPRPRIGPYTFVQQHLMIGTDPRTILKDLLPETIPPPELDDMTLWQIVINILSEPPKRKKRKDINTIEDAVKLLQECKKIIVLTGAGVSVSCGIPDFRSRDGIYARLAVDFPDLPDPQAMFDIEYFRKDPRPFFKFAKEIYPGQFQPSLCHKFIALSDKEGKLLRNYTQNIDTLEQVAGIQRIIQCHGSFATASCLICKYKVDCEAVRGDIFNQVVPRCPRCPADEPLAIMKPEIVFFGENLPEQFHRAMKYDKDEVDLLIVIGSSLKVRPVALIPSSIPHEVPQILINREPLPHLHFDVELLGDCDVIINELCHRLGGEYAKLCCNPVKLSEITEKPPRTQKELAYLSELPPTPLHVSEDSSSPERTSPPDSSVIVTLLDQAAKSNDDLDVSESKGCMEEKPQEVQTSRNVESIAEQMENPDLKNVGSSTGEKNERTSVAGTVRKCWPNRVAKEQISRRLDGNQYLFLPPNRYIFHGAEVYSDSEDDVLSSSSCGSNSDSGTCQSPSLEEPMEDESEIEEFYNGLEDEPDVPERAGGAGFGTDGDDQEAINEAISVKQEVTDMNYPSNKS
Test: Trp mass spectrometry assay of SIRT1 activity (EC1.5, percent maximum activation)
Format: biochemical
Conditions: Trp mass spectrometry assay; for TRP Activity (EC1.5): EC1.5 = concentration giving 150% activation of SIRT1
Method in brief: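 Activation values derive from mass-spectrometric measurement of NAD-dependent deacetylation product after a 25 min reaction of bacterially expressed His-tagged SIRT1 with a fluorophore-labelled Trp peptide.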

[1] = percent maximum activation of SIRT1
[2] = 0.5 μM peptide substrate, 120 μM βNAD+, 10 nM SIRT1, 25 minutes at 25° C.

SMILES	TRP Activity (EC1.5)	TRP MAX RESP (percent maximum fold activation) [1]	TRP Activity (EC1.5, concentration of test compound that results in 150% activation of SIRT1) [2]	TRP MAX RESP (percent maximum fold activation) [2]
Cc1cc(-c2nc3c(cc2Cl)N2CC[C@@H](C2)N3C(=O)Nc2ccnc(OC[C@@H](O)CO)c2)ccn1 [Example 37, (4S)-8-chloro-N-(2-((S)-2,3-dihydroxypropoxy)pyridin-4-yl)-7-(2-methylpyridin-4-yl)-3,4-dihydro-1,4-methanopyrido[2,3-b][1,4]diazepine-5(2H)-carboxamide]	B (EC1.5 1-25 μM)	A (Fold activation ≧150%)		
O=C(Nc1cc(OC[C@@H](O)CO)ccn1)N1c2nc(-c3cccc(C(F)(F)F)c3)c(Cl)cc2N2CC[C@H]1C2 [Example 63, (4S)-8-chloro-N-(4-((S)-2,3-dihydroxypropoxy)pyridin-2-yl)-7-(3-(trifluoromethyl)phenyl)-3,4-dihydro-1,4-methanopyrido[2,3-b][1,4]diazepine-5(2H)-carboxamide]	B (EC1.5 1-25 μM)	A (Fold activation ≧150%)		
Cc1cc(-c2cccc(C(F)(F)F)c2)nc2c1N1CC[C@@H](C1)N2C(=O)Nc1ccnc(OC[C@@H](O)CO)c1 [Example 87, (4S)-N-(2-((S)-2,3-dihydroxypropoxy)pyridin-4-yl)-9-methyl-7-(3-(trifluoromethyl)phenyl)-3,4-dihydro-1,4-methanopyrido[2,3-b][1,4]diazepine-5(2H)-carboxamide]	A (EC1.5<1 μM)	A (Fold activation ≧150%)		
Cc1cc(-c2nc3c(cc2C)N2CC[C@@H](C2)N3C(=O)Nc2cccnc2)ccn1 [Example 17, (4S)-8-methyl-7-(2-methylpyridin-4-yl)-N-(pyridin-3-yl)-3,4-dihydro-1,4-methano pyrido[2,3-b][1,4]diazepine-5(2H)-carboxamide]	B (EC1.5 1-25 μM)	A (Fold activation ≧150%)		
Cc1cc(-c2nc3c(c(C)c2C)N2CC[C@@H](C2)N3C(=O)Nc2cccnc2)ccn1 [Example 91, (4S)-8,9-dimethyl-7-(2-methylpyridin-4-yl)-N-(pyridin-3-yl)-3,4-dihydro-1,4-methanopyrido[2,3-b][1,4]diazepine-5(2H)-carboxamide]	B (EC1.5 1-25 μM)	A (Fold activation ≧150%)		
Cc1cc(-c2ccc3c(n2)N(C(=O)Nc2cc(-c4c(C)nn(C)c4C)ccn2)[C@H]2CCN3C2)ccn1 [Example 365]				A (Fold activation ≧150%)
Cl.O=C(Nc1cc(OC[C@@H](O)CO)ccn1)N1c2nc(-c3cccc(C(F)(F)F)c3)c(Cl)cc2N2CC[C@H]1C2 [Example 64, (4S)-8-chloro-N-(4-((S)-2,3-dihydroxypropoxy)pyridin-2-yl)-7-(3-(trifluoromethyl)phenyl)-3,4-dihydro-1,4-methanopyrido[2,3-b][1,4]diazepine-5(2H)-carboxamide, Hydrochloride]	B (EC1.5 1-25 μM)	A (Fold activation ≧150%)		
Cc1cc(-c2ccc3c(n2)N(C(=O)N2CCCCC2)[C@H]2CCN3C2)ccn1 [Example 151, ((4S)-7-(2-methylpyridin-4-yl)-3,4-dihydro-1,4-methanopyrido[2,3-b][1,4]diazepin-5(2H)-yl)(piperidin-1-yl)methanone]	C (EC1.5>25 μM)	B (Fold Activation <150%)		
Cl.O=C(Nc1ccnc(OC[C@H](O)CO)n1)N1c2nc(-c3cccc(C(F)(F)F)c3)c(Cl)cc2N2CC[C@H]1C2 [Example 51, (4S)-8-chloro-N-(2-((R)-2,3-dihydroxypropoxy)pyrimidin-4-yl)-7-(3-(trifluoromethyl)phenyl)-3,4-dihydro-1,4-methanopyrido[2,3-b][1,4]diazepine-5(2H)-carboxamide Hydrochloride]	A (EC1.5<1 μM)	A (Fold activation ≧150%)		

Now from value to compound:

TRP Activity (EC1.5)	TRP MAX RESP (percent maximum fold activation) [1]	TRP Activity (EC1.5, concentration of test compound that results in 150% activation of SIRT1) [2]	TRP MAX RESP (percent maximum fold activation) [2]	SMILES
B (EC1.5 1-25 μM)	A (Fold activation ≧150%)			CCn1cc(-c2nc3c(cc2Cl)N2CC[C@@H](C2)N3C(=O)Nc2ccnc(OC[C@H](O)CO)c2)cn1 [Example 90, (4S)-8-chloro-N-(2-((R)-2,3-dihydroxypropoxy)pyridin-4-yl)-7-(1-ethyl-1H-pyrazol-4-yl)-3,4-dihydro-1,4-methanopyrido[2,3-b][1,4]diazepine-5(2H)-carboxamide]
C (EC1.5>25 μM)	B (Fold Activation <150%)			Cc1cc(-c2nc3c(cc2Cl)N2CC[C@@H](C2)N3C(=O)Nc2ccnc(OC[C@H](O)CO)n2)ccn1 [Example 96, (4S)-8-chloro-N-(2-((R)-2,3-dihydroxypropoxy)pyrimidin-4-yl)-7-(2-methylpyridin-4-yl)-3,4-dihydro-1,4-methanopyrido[2,3-b][1,4]diazepine-5(2H)-carboxamide]
A (EC1.5<1 μM)	A (Fold activation ≧150%)			O=C(Nc1ccnc(OC[C@H](O)CO)c1)N1c2nc(-c3cccc(C(F)(F)F)c3)ccc2N2CC[C@H]1C2 [Example 132, (4S)-N-(2-((R)-2,3-dihydroxypropoxy)pyridin-4-yl)-7-(3-(trifluoromethyl)phenyl)-3,4-dihydro-1,4-methanopyrido[2,3-b][1,4]diazepine-5(2H)-carboxamide]
A (EC1.5<1 μM)	A (Fold activation ≧150%)			Cl.O=C(Nc1ccnc(OC[C@@H](O)CO)c1)N1c2nc(-c3cccc(C(F)(F)F)c3)c(Cl)cc2N2CC[C@H]1C2 [Example 58, (4S)-8-chloro-N-(2-((S)-2,3-dihydroxypropoxy)pyridin-4-yl)-7-(3-(trifluoromethyl)phenyl)-3,4-dihydro-1,4-methanopyrido[2,3-b][1,4]diazepine-5(2H)-carboxamide, Hydrochloride]
B (EC1.5 1-25 μM)	A (Fold activation ≧150%)			Cc1cc(-c2ccc3c(n2)N(C(=O)Nc2cnccn2)[C@H]2CCN3C2)c(C)cn1 [Example 159, (4S)-7-(2,5-dimethylpyridin-4-yl)-N-(pyrazin-2-yl)-3,4-dihydro-1,4-methanopyrido[2,3-b][1,4]diazepine-5(2H)-carboxamide]
		B (EC1.5 1-25 μM)	A (Fold activation ≧150%)	Cc1ccc(-c2ccc3c(n2)N(C(=O)Nc2cncc(C)n2)[C@H]2CCN3C2)cn1 [Example 238, (4S)-N-(6-methylpyrazin-2-yl)-7-(6-methylpyridin-3-yl)-3,4-dihydro-1,4-methanopyrido[2,3-b][1,4]diazepine-5(2H)-carboxamide]
A (EC1.5<1 μM)	A (Fold activation ≧150%)			Cc1ccc2c(NC(=O)N3c4nc(-c5cccc(C(F)(F)F)c5)c(Cl)cc4N4CC[C@H]3C4)n[nH]c2n1 [Example 88, (4S)-8-chloro-N-(6-methyl-1H-pyrazolo[3,4-b]pyridin-3-yl)-7-(3-(trifluoromethyl)phenyl)-3,4-dihydro-1,4-methanopyrido[2,3-b][1,4]diazepine-5(2H)-carboxamide]
B (EC1.5 1-25 μM)	A (Fold activation ≧150%)			Cc1cc(-c2ccc3c(n2)N(C(=O)Nc2cccc4nnc(C)cc24)[C@H]2CCN3C2)ccn1 [Example 153, (4S)-N-(3-methylcinnolin-5-yl)-7-(2-methylpyridin-4-yl)-3,4-dihydro-1,4-methanopyrido[2,3-b][1,4]diazepine-5(2H)-carboxamide]
B (EC1.5 1-25 μM)	A (Fold activation ≧150%)			COc1cc(-c2ccc3c(n2)N(C(=O)Nc2cnccn2)[C@H]2CCN3C2)ccn1 [Example 141, (4S)-7-(2-methoxypyridin-4-yl)-N-(pyrazin-2-yl)-3,4-dihydro-1,4-methanopyrido[2,3-b][1,4]diazepine-5(2H)-carboxamide]
A (EC1.5<1 μM)	A (Fold activation ≧150%)			Cl.O=C(Nc1cncc(OC[C@H](O)CO)n1)N1c2nc(-c3cccc(C(F)(F)F)c3)c(Cl)cc2N2CC[C@H]1C2 [Example 62, (4S)-8-chloro-N-(6-((R)-2,3-dihydroxypropoxy)pyrazin-2-yl)-7-(3-(trifluoromethyl)phenyl)-3,4-dihydro-1,4-methanopyrido[2,3-b][1,4]diazepine-5(2H)-carboxamide, Hydrochloride]
